Data reported in patent US10555528B1, “Herbicidal composition and method for controlling weeds” (SUMITOMO CHEMICAL COMPANY, LIMITED, priority 2019, dated 2020).

Columns and labels:
corn plant = assay: Spot-on crop injury test on corn leaf; assay type: in vivo; conditions: corn at 2.5-leaf stage, 2 micro liter droplet spotted on 2nd leaf; glufosinate-ammonium 40,000 ng/plant, PPO inhibitor none or 20 ng/plant (weight ratio 1/2,000); visually estimated 3 days after treatment, % of total area of treated leaf
Source text: 3 days after the spot-on treatments, the injured area of the treated leaf was visually estimated as a percentage on the total area of the treated leaf.

soybean plant = assay: Spot-on crop injury test on soybean leaf; assay type: in vivo; conditions: soybean at 2 trifoliate leaf stage, 2 micro liter droplet spotted on 2nd trifoliate leaf; glufosinate-ammonium 400,000 ng/plant, PPO inhibitor none or 0.2 ng/plant (weight ratio 1/2,000,000); visually estimated 6 days after treatment, % of total area of treated leaf
Source text: One droplet having 2 micro liter of a commercial formulation of glufosinate-ammonium (manufactured by Bayer Cropscience KK under the trade name of Basta) having 200,000 ppm (200 g/L) of glufosinate-ammonium was spotted on the 2nd trifoliate leaf of a soybean plant at the stage of 2 trifoliate leaf.
6 days after the spot-on treatments, the injured area of the treated leaf was visually estimated as a percentage on the total area of the treated leaf.

Work on `CP(=O)(O)CCC(N)C(=O)O` (centres unmarked) [Glufosinate-ammonium, glufosinate-ammonium] yielded an Injured leaf area (corn plant) of 60% and an Injured leaf area (soybean plant) of 70%.
